Reference: patent US20070231334A1 (priority 2004, published 2007)
Entries after “also recorded” stand apart in the source; their conditions may differ. Read-outs that look alike come from different tables or passages of the source.

What was measured:
[1] = test system: hemorrhagic activity of B. anthracis culture supernatant (BACS); set-up: species or system B. anthracis (delta Ames); conditions: in vivo, sc
B. anthracis (Sterne) = test system: B. anthracis (Sterne); set-up: species or system Bacillus anthracis; conditions: in vivo
[2] = test system: BACS proteolytic activity; type: biochemical, B. anthracis
[3] = mouse, in vivo

Molecule: O=C(O)CN(CCN(CC(=O)O)CC(=O)O)CC(=O)O [EDTA, ethylenediaminetetraacetic acid]
- suppression of hemorrhagic effect of BACS [1]: effectively abrogated

Molecule: CC[C@@H](C)[C@@H](O)[C@H](C)C(=O)[C@H](C)/C=C(\C)C[C@H](C)[C@@H]1OC(=O)[C@H]1CC [ebelactone B]
- effect on survival / protection (B. anthracis (Sterne)): did not increase survival over the effects of doxycycline alone

Molecule: c1cnc2c(c1)ccc1cccnc12 [phenanthroline, 1,10-phenanthroline]
- inhibition of hydrolysis of gelatin and casein by BACS [2]: inhibited

Molecule: O=C(O)c1cn(C2CC2)c2cc(N3CCNCC3)c(F)cc2c1=O [ciprofloxacin]
- effectiveness of treatment (B. anthracis (Sterne)): ineffective
- survival (B. anthracis (Sterne)): 20%
- survival (effectiveness) (B. anthracis (Sterne)): 70%
- survival (B. anthracis (Sterne); ip): 20%

Molecule: C[C@H]1c2cccc(O)c2C(=O)C2=C(O)[C@]3(O)C(=O)C(C(N)=O)=C(O)[C@@H](N(C)C)[C@@H]3[C@@H](O)[C@@H]21 [doxycycline]
- survival (B. anthracis (Sterne); ip): 30%

Molecule: CC(C)C[C@H](NP(=O)(O)O[C@@H]1O[C@@H](C)[C@H](O)[C@@H](O)[C@H]1O)C(=O)N[C@@H](Cc1c[nH]c2ccccc12)C(=O)O [phosphoramidon]
- inhibition of hydrolysis of gelatin and casein by BACS [2]: inhibited
- suppression of hemorrhagic effect of BACS [1]: effective; also recorded: effectively abrogated

B1: SBTI (protein, UniProt P01070 25-205, looked up)
Trypsin inhibitor A: DFVLDNEGNPLENGGTYYILSDITAFGGIRAAPTGNERCPLTVVQSRNELDKGIGTIISSPYRIRFIAEGHPLSLKFDSFAVIMLCVGIPTEWSVVEDLPEGPAVKIGENKDAMDGWFRLERVSDDEFNNYKLVFCPQQAEDDKCGDIGISIDHDDGTRRLVVSKNKPLVVQFQKLDKESL
- suppression of hemorrhagic effect of BACS [1]: effectively abrogated

B2: thermolysin: thermolysin (EC 3.4.24.27) from Bacillus thermoproteolyticus (protein, UniProt P00800 233-548, looked up)
Thermolysin: ITGTSTVGVGRGVLGDQKNINTTYSTYYYLQDNTRGNGIFTYDAKYRTTLPGSLWADADNQFFASYDAPAVDAHYYAGVTYDYYKNVHNRLSYDGNNAAIRSSVHYSQGYNNAFWNGSQMVYGDGDGQTFIPLSGGIDVVAHELTHAVTDYTAGLIYQNESGAINEAISDIFGTLVEFYANKNPDWEIGEDVYTPGISGDSLRSMSDPAKYGDPDHYSKRYTGTQDNGGVHINSGIINKAAYLISQGGTHYGVSVVGIGRDKLGKIFYRALTQYLTPTSNFSQLRAAAVQSATDLYGSTSQEVASVKQAFDAVGVK
- dose range in which hemorrhagic activity was detectable [3]: 10 to 100 µg
